Measurements: paper PMC10302047, “Structure–Activity Relationship Studies of Indolglyoxyl-Polyamine Conjugates as Antimicrobials and Antibiotic Potentiators” (Pharmaceuticals, 2023)
In brackets after ≈: the same amount, converted by molar mass. Entries after “also recorded” stand apart in the source; their conditions may differ. Where two headings read alike, the source gives them in different places. Marks after values point to notes of the source that are not given here.

Experiments:
P. aeruginosa ATCC 27853 [1] = experiment: Antibiotic potentiation (MIC of antibiotics in the presence of synergizing compounds), P. aeruginosa; type: cell-based, Pseudomonas aeruginosa; conditions: for Conc (µM) for Potentiation of doxycycline: concentration required to restore doxycycline activity at 2 µg/mL (4.5 µM) against P. aeruginosa ATCC 27853
C. albicans ATCC 90028 [2] = experiment: Antifungal susceptibility (MIC), C. albicans; type: cell-based; conditions: Candida albicans, ATCC90028, mean (n = 2)
Method in brief: (§1)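 MICs against E. coli ATCC 25922 and P. aeruginosa ATCC 27853 followed previously reported protocols. MRSA ATCC 43300 and C. albicans ATCC 90028 were tested by CO-ADD under its standard protocols.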

MRSA ATCC 43300 = experiment: Antimicrobial susceptibility (MIC), MRSA; type: cell-based; conditions: Staphylococcus aureus; MRSA ATCC 43300; mean (n = 2); read-out: MIC MRSA
Method in brief: as §1

[3] = test system: HEK293 (human embryonic kidney cells); experiment: Cytotoxicity assay HEK293; type: cell-based; conditions: mean (n = 2)
Experimental: (§2) Cytotoxicity assays were conducted according to previously reported protocols.

[4] = Cytotoxicity assay HEK293; type: cell-based, human; conditions: human, HEK293 cells, mean (n = 2), read-out: Cyto. IC50 (concentration of compound at 50% cytotoxicity)
Experimental: as §2

P. aeruginosa ATCC 27853 [5] = experiment: Antimicrobial susceptibility (MIC), P. aeruginosa; type: cell-based; conditions: Pseudomonas aeruginosa, ATCC27853, mean (n = 3), read-out: MIC P. a
Method in brief: as §1

S. aureus ATCC 25923 [6] = experiment: Antimicrobial susceptibility (MIC), S. aureus; type: cell-based, Staphylococcus aureus; conditions: Staphylococcus aureus, ATCC25923; S. aureus ATCC 25923; mean (n = 3)
E. coli ATCC 25922 [7] = experiment: Antimicrobial susceptibility (MIC), E. coli; type: cell-based; conditions: Escherichia coli, ATCC25922, mean (n = 3)
Method in brief: as §1

A. baumannii AYE = experiment: Antibiotic potentiation, A. baumannii; type: cell-based, Acinetobacter baumannii; conditions: mean (n = 3)
Experimental: (§3) Antibiotic enhancing activities were determined according to previously reported protocols.

[8] = test system: Klebsiella pneumoniae ST258; experiment: Antibiotic potentiation, K. pneumoniae; type: cell-based; conditions: mean (n = 3)
Experimental: as §3

human red blood cells = experiment: Hemolytic assay; type: cell-based; conditions: mean (n = 2)
Experimental: Hemolysis assays were conducted according to previously reported protocols.

E. coli ATCC 25922 [9] = experiment: Antibiotic potentiation, E. coli; type: cell-based, Escherichia coli; conditions: mean (n = 3)
Experimental: as §3

P. aeruginosa ATCC 27853 [10] = conditions: cited from earlier work
E. coli ATCC 25922 [11] = test system: E. coli ATCC 25922; design: method as in Cadelis et al. [16]; conditions: ref Cadelis et al. [16]; cited from earlier work
C. albicans ATCC 90028 [12] = test system: C. albicans ATCC 90028; design: method as in Cadelis et al. [16]; conditions: ref Cadelis et al. [16]; cited from earlier work
[13] = test system: HEK293 (human embryonic kidney cells); conditions: cited from earlier work
P. aeruginosa ATCC 27853 [14] = test system: P. aeruginosa ATCC 27853; design: method as in Cadelis et al. [16]; conditions: ref Cadelis et al. [16]; cited from earlier work
S. aureus ATCC 25923 [15] = conditions: cited from earlier work
[16] = test system: rat skeletal myoblast cell line L6; design: method as in PMID 30975502; conditions: ref [15], read-out: IC50 cytotoxicity; cited from earlier work
Cryptococcus neoformans = test system: Cryptococcus neoformans; design: method as in PMID 30975502; conditions: fungus Cryptococcus neoformans; ref [15]; cited from earlier work

SMILES | Conc (µM) for Potentiation of doxycycline (P. aeruginosa ATCC 27853 [1]) [µM] | MIC (C. albicans ATCC 90028 [2]) [µM] | MIC (MRSA ATCC 43300) [µM] | Cyto. IC50 (concentration of compound at 50% cytotoxicity) [3] | IC50 [4] [µM] | MIC (P. aeruginosa ATCC 27853 [5]) [µM] | MIC (S. aureus ATCC 25923 [6]) [µM] | MIC (E. coli ATCC 25922 [7]) [µM] | Hem. HC10 (concentration of compound at 10% hemolytic activity) (human red blood cells) | further results
COc1ccc2[nH]cc(C(=O)C(=O)NCCCNCCCCCCNCCCNC(=O)C(=O)c3c[nH]c4ccc(OC)cc34)c2c1.O=C(O)C(F)(F)F.O=C(O)C(F)(F)F [Compound 19a, N^1,N^6-Bis(3-(2-(5-methoxy-1H-indol-3-yl)-2-oxoacetamido)propyl)hexane-1,6-diaminium 2,2,2-trifluoroacetate] | 7.3 | > 37 | > 37 | non-toxic | > 37 | > 200 | 29 | > 200 |  | Concentration (µM) for Potentiation of chloramphenicol (P. aeruginosa ATCC 27853 [1]; P. aeruginosa ATCC 27853, chloramphenicol 2 µg/mL, mean (n = 3)): 58 µM; Concentration (µM) for Potentiation of minocycline (P. aeruginosa ATCC 27853 [1]; P. aeruginosa ATCC 27853, minocycline 2 µg/mL, mean (n = 3)): 14.5 µM; Concentration (µM) for Potentiation, no antibiotic (P. aeruginosa ATCC 27853 [1]; P. aeruginosa ATCC 27853, no antibiotic, mean (n = 3)): >200 µM
O=C(NCCCNCCCCCCNCCCNC(=O)C(=O)c1c[nH]c2c(F)cccc12)C(=O)c1c[nH]c2c(F)cccc12.O=C(O)C(F)(F)F.O=C(O)C(F)(F)F [Compound 21a, N^1,N^6-Bis(3-(2-(7-fluoro-1H-indol-3-yl)-2-oxoacetamido)propyl)hexane-1,6-diaminium 2,2,2-trifluoroacetate] |  | > 38 | 19.1 |  | 12 | 240 | 7.5 | 240 | >38 ^e µM | Concentration (µM) for Potentiation of erythromycin (P. aeruginosa ATCC 27853 [1]; P. aeruginosa ATCC 27853, erythromycin 2 µg/mL, mean (n = 3)): 100 µM; Concentration (µM) for Potentiation of chloramphenicol (A. baumannii AYE; chloramphenicol 2 µg/mL): 200 µM; Concentration (µM) for Potentiation of doxycycline (A. baumannii AYE; doxycycline 2 µg/mL): 12.5 µM; Concentration (µM) for Potentiation of erythromycin (A. baumannii AYE; erythromycin 2 µg/mL): 100 µM; Concentration (µM) for Potentiation of nalidixic acid (A. baumannii AYE; nalidixic acid 2 µg/mL): 200 µM; Concentration (µM) for Potentiation, no antibiotic (A. baumannii AYE; no antibiotic): 100 µM; Concentration (µM) for Potentiation of chloramphenicol ([8]; chloramphenicol 2 µg/mL): >200 µM; Concentration (µM) for Potentiation of doxycycline ([8]; doxycycline 2 µg/mL): 200 µM; Concentration (µM) for Potentiation of erythromycin ([8]; erythromycin 2 µg/mL): >200 µM; Concentration (µM) for Potentiation of nalidixic acid ([8]; nalidixic acid 2 µg/mL): >200 µM; Concentration (µM) for Potentiation of chloramphenicol (E. coli ATCC 25922 [9]; chloramphenicol 2 µg/mL): >200 µM; Concentration (µM) for Potentiation of doxycycline (E. coli ATCC 25922 [9]; doxycycline 2 µg/mL): 1.56 µM; Concentration (µM) for Potentiation of erythromycin (E. coli ATCC 25922 [9]; erythromycin 2 µg/mL): 200 µM; Concentration (µM) for Potentiation of nalidixic acid (E. coli ATCC 25922 [9]; nalidixic acid 2 µg/mL): 200 µM
Cc1ccc2[nH]cc(C(=O)C(=O)NCCCNCCCCNCCCNC(=O)C(=O)c3c[nH]c4ccc(C)cc34)c2c1 [Compound 5] |  |  | 20 (≈ 11.5 µg/mL) |  |  |  |  |  | >40 µM | Conc (µM) for Potentiation of doxycycline (P. aeruginosa ATCC 27853 [10]; doxycycline at 2 µg/mL (4.5 µM), P. aeruginosa ATCC 27853, ref Cadelis et al. [16]): 6.25 ^b µM; MIC E. c (E. coli ATCC 25922 [11]): 200 ^h µM; MIC C. a (C. albicans ATCC 90028 [12]): >40.0 ^h µM; IC50 ([13]; HEK293, ref Cadelis et al. [16], read-out: Cyto. IC50 (concentration of compound at 50% cytotoxicity)): > 40 µM; MIC P. a (P. aeruginosa ATCC 27853 [14]): 100 ^h µM; MIC S. a (S. aureus ATCC 25923 [15]; S. aureus ATCC 25923, ref Cadelis et al. [16]): 25 ^h µM
Cc1cccc2c(C(=O)C(=O)NCCCNCCCCCCCNCCCNC(=O)C(=O)c3c[nH]c4c(C)cccc34)c[nH]c12.O=C(O)C(F)(F)F.O=C(O)C(F)(F)F [Compound 23b, N^1,N^7-Bis(3-(2-(7-methyl-1H-indol-3-yl)-2-oxoacetamido)propyl)heptane-1,7-diaminium 2,2,2-trifluoroacetate] | 240 | > 38 | ≤ 0.3 | non-cytotoxic; also recorded: no detectable cytotoxicity | > 38 | > 240 | 14.8 | 120 |  | 
O=C(NCCCNCCCCNCCCNC(=O)C(=O)c1c[nH]c2cc(Br)ccc12)C(=O)c1c[nH]c2cc(Br)ccc12 [Compound 1] |  |  |  |  |  |  |  |  |  | IC50 [16]: 7.7 µM; antibiotic enhancement in combination with doxycycline (P. aeruginosa ATCC 27853 [10]; Pseudomonas aeruginosa, result in words, ref [15]): strong antibiotic enhancement effect; MIC (Cryptococcus neoformans): 1.1 µM (≈ 0.773 µg/mL); IC50 ([13]; human embryonic kidney cell line HEK293, ref [15], read-out: IC50 cytotoxicity): 5.1 µM; MIC (S. aureus ATCC 25923 [15]; Staphylococcus aureus ATCC 25923, ref [15]): 6.25 µM (≈ 4.39 µg/mL)
Cc1cccc2c(C(=O)C(=O)NCCCNCCCCCCCCNCCCNC(=O)C(=O)c3c[nH]c4c(C)cccc34)c[nH]c12.O=C(O)C(F)(F)F.O=C(O)C(F)(F)F [Compound 23c, N^1,N^8-Bis(3-(2-(7-methyl-1H-indol-3-yl)-2-oxoacetamido)propyl)octane-1,8-diaminium 2,2,2-trifluoroacetate] | 230 | > 37 | ≤ 0.29 | non-cytotoxic; also recorded: no detectable cytotoxicity | > 37 | > 230 | 7.3 | 29 |  | 
